Source: US20050058600A1, “3,3'-Diindolylmethane antiandrogenic compositions” (priority 2003, published 2005)

Legend:
[1] = system: skin surrounding the flank organ of the male Syrian hamster; test: Androgen-induced delay of hair growth in the Golden Syrian hamster; assay type: in vivo
Protocol: Mature male golden Syrian hamsters, 101-110 g, are obtained from Charles River Laboratories (Wilmington, Mass.). Pellet implant and blood drawing procedures are performed while animals are under general anaesthesia induced by isoflurane (Aerrane®, Fort Dodge Animal Health, Overland Park, Kans.). Testosterone propionate (TP) is administered in the form of 25 mg dose time-release pellets (Inovative Research of America, Toledo, Ohio). Antiandrogenic DIM derivatives (Example II, supra) are coadministered in parallel 25 mg dose time-release pellets. Control animals receive placebo pellets, which contain only carrier/binder excipients (cholesterol, lactose, celluloses, phosphates, and stearates).
Pellets are implanted subcutaneously. A skin incision is made with scissors on the upper dorsal side of the animal, equal in length to the pellet. A horizontal pocket is created with forceps about 2 cm beyond the incision site. Pellets are placed in the pocket with forceps, and incisions are then closed with a staple suture (Autoclip®, 9 mm, Stoelting Co., Wood Dale, Ill.). Immediately after pellet implantation, the fur on and around each flank organ is shaved with electric clippers. This is designated day 0 of the study. At day 7, the fur around the flank organ is re-clipped. […] On day 21 the surface diameters of the left and right flank organs (encompassed within the pigmented area) are measured with vernier callipers. […]
Sebaceous glands are evaluated in unstained whole mounts of ventral dermal sheets from the left ears. […] The gland areas are measured using an Optomax V image analysis system (Optomax, Hollis, N.H.). The percentage change in sebaceous gland size is calculated by comparing the testosterone-treated group with the placebo-treated group. Serum testosterone is measured by radioimmunoassay at an outside laboratory (AniLytics, Inc., Gaithersburg, Md.).
Hair growth is quantified using a visual grading system (0-3 scale, where 0=no growth, 3=full hair growth). […]

[2] = system: dimethylbenzanthracene (DMBA)-induced mammary tumors; conditions: rats; cited from earlier work
[3] = system: benzo(a)pyrene (BP)-induced tumors of the forestomach; conditions: mice; cited from earlier work
[4] = system: BP-induced pulmonary adenomas; conditions: mice; cited from earlier work
prostate cancer cells = conditions: cited from earlier work
breast cancer cells = conditions: in culture; cited from earlier work

| Structure (SMILES) | size of the flank organ and the ear sebaceous glands ([1]; 25 mg TP dose, after 21 days) | hair growth grade (0-3 scale) ([1]; TP alone, day 14) | hair growth ([1]; TP alone, day 21) | incidence of DMBA-induced mammary tumors [2] | incidence of BP-induced tumors of the forestomach [3] | incidence of BP-induced pulmonary adenomas [4] | proliferation of prostate cancer cells (prostate cancer cells) | proliferation of breast cancer cells (breast cancer cells) |
| --- | --- | --- | --- | --- | --- | --- | --- | --- |
| CCC(=O)O[C@H]1CC[C@H]2[C@@H]3CCC4=CC(=O)CC[C@]4(C)[C@H]3CC[C@]12C [TP, Testosterone propionate] | marked increase | 0 | insignificant |  |  |  |  |  |
| OCc1c[nH]c2ccccc12 [I3C, indole-3-carbinol, reference compound] |  |  |  | reduced the incidence | reduced the incidence | reduced the incidence | inhibit proliferation | inhibit proliferation |
